# Measurements as given in US9328106B2, “Cyclic ether pyrazol-4-yl-heterocyclyl-carboxamide compounds and methods of use” (Genentech, Inc., priority 2012, dated 2016).
# Target: PIM1 (Homo sapiens (Human), UniProt P11309)
# Assay: biochemical
# Format: biochemical
# Conditions: 20 pM PIM1, 1 μM FAM-peptide, 10 μM ATP, 90 minutes at room temperature; read-out: PIM1 LC3K (KI)
# Sequence of PIM1 (P11309 whole entry): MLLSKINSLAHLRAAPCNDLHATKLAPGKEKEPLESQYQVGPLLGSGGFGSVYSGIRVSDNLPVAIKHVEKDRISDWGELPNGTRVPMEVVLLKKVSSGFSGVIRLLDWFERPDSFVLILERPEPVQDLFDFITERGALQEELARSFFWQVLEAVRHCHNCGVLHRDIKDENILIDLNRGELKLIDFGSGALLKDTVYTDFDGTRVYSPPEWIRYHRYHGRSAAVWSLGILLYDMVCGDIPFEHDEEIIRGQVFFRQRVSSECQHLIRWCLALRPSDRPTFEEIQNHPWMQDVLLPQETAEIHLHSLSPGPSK
row,Ki,SMILES
1,2 pM,"Cn1ncc(NC(=O)c2csc(-n3cc4ccccc4n3)n2)c1[C@@H]1CC[C@@H](N)[C@H](F)CO1 [Example 396, N-(5-((2S,5R,6S)-5-amino-6-fluorooxepan-2-yl)-1-methyl-1H-pyrazol-4-yl)-2-(2H-indazol-2-yl)thiazole-4-carboxamide]"
2,18 pM,"Cn1ncc(NC(=O)c2csc(-c3c(F)cc(C(C)(F)F)cc3F)n2)c1[C@@H]1CC[C@@H](N)[C@H](F)CO1 [Example 394, N-(5-((2S,5R,6S)-5-amino-6-fluorooxepan-2-yl)-1-methyl-1H-pyrazol-4-yl)-2-(4-(1,1-difluoroethyl)-2,6-difluorophenyl)thiazole-4-carboxamide]"
3,36 pM,"Cn1ncc(NC(=O)c2nc(-c3c(F)cccc3F)sc2N)c1[C@H]1OC[C@](C)(CN)CO1 [Example 175, 5-Amino-N-[5-[5-(aminomethyl)-5-methyl-1,3-dioxan-2-yl]-1-methyl-pyrazol-4-yl]-2-(2,6-difluorophenyl)thiazole-4-carboxamide]"
4,16 pM,"Cn1ncc(NC(=O)c2ccc(F)c(-c3c(F)cc(C4(F)CCOCC4)cc3F)n2)c1[C@@H]1CC[C@@H](N)[C@H](F)CO1 [Example 206, N-(5-((2S,5R,6S)-5-amino-6-fluorooxepan-2-yl)-1-methyl-1H-pyrazol-4-yl)-6-(2,6-difluoro-4-(4-fluorotetrahydro-2H-pyran-4-yl)phenyl)-5-fluoropicolinamide]"
5,31 pM,"Cn1ncc(NC(=O)c2csc(-c3c(F)ccc(F)c3F)n2)c1[C@@H]1CC[C@@H](N)[C@@H](F)CO1 [Example 230, N-(5-((2S,5R,6R)-5-amino-6-fluorooxepan-2-yl)-1-methyl-1H-pyrazol-4-yl)-2-(2,3,6-trifluorophenyl)thiazole-4-carboxamide]"
6,389 pM,"CC(=O)Nc1ccc(-c2nc(C(=O)Nc3cnn(C)c3[C@@H]3CC[C@@H](N)[C@H](F)CO3)cs2)cn1 [Example 386, 2-(6-acetamido-3-pyridyl)-N-[5-[(2S,5R,6S)-5-amino-6-fluoro-oxepan-2-yl]-1-methyl-pyrazol-4-yl]thiazole-4-carboxamide]"
7,98 pM,"Cn1ncc(NC(=O)c2csc(-c3ccccc3F)n2)c1[C@@H]1CC[C@@H](N)[C@@H](F)CO1 [Example 318, N-(5-((2S,5R,6R)-5-amino-6-fluorooxepan-2-yl)-1-methyl-1H-pyrazol-4-yl)-2-(2-fluorophenyl)thiazole-4-carboxamide]"
8,27 pM,"Cn1ncc(NC(=O)c2nc(-c3c(F)cccc3F)sc2N)c1[C@H]1CC[C@H](CN)O1 [Example 171, 5-Amino-N-[5-[(2R,5R)-5-(aminomethyl)tetrahydrofuran-2-yl]-1-methyl-pyrazol-4-yl]-2-(2,6-difluorophenyl)thiazole-4-carboxamide]"
9,32 pM,"Cn1ncc(NC(=O)c2nc(-c3c(F)cccc3F)sc2N)c1C1CC(F)(F)CC(N)CO1 (single isomer, unassigned) [Example 114, 5-amino-N-[5-(6-amino-4,4-difluoro-oxepan-2-yl)-1-methyl-pyrazol-4-yl]-2-(2,6-difluorophenyl)thiazole-4-carboxamide]"
10,84 pM,"COC(c1cc(F)c(-c2nc(C(=O)Nc3cnn(C)c3[C@@H]3CC[C@@H](N)[C@H](F)CO3)cs2)c(F)c1)C1CC1 (stereo partly drawn) [Example 276, N-(5-((2S,5R,6S)-5-amino-6-fluorooxepan-2-yl)-1-methyl-1H-pyrazol-4-yl)-2-(4-(cyclopropyl(methoxy)methyl)-2,6-difluorophenyl)thiazole-4-carboxamide]"
11,134 pM,"Cn1ncc(NC(=O)c2csc(-c3ccncc3F)n2)c1[C@@H]1CC[C@@H](N)[C@H](F)CO1 [Example 300, N-(5-((2S,5R,6S)-5-amino-6-fluorooxepan-2-yl)-1-methyl-1H-pyrazol-4-yl)-2-(3-fluoropyridin-4-yl)thiazole-4-carboxamide]"
12,28 pM,"Cn1ncc(NC(=O)c2nc(-c3cccc(C(F)(F)F)c3F)sc2N)c1[C@@H]1CC[C@@H](N)[C@@H](F)CO1 [Example 268, 5-amino-N-(5-((2S,5R,6R)-5-amino-6-fluorooxepan-2-yl)-1-methyl-1H-pyrazol-4-yl)-2-(2-fluoro-3-(trifluoromethyl)phenyl)thiazole-4-carboxamide]"
13,45 pM,"Cc1cccnc1-c1nc(C(=O)Nc2cnn(C)c2[C@@H]2CC[C@@H](N)[C@H](F)CO2)cs1 [Example 231, N-(5-((2S,5R,6S)-5-amino-6-fluorooxepan-2-yl)-1-methyl-1H-pyrazol-4-yl)-2-(3-methylpyridin-2-yl)thiazole-4-carboxamide]"
14,4 pM,"Cn1ncc(NC(=O)c2nc(-c3cccc(F)c3F)sc2N)c1[C@@H]1CC[C@@H](N)[C@@H](F)CO1 [Example 181, 5-Amino-N-[5-[(2S,5R,6R)-5-amino-6-fluoro-oxepan-2-yl]-1-methyl-pyrazol-4-yl]-2-(2,3-difluorophenyl)thiazole-4-carboxamide]"
15,56 pM,"COCCOc1cc(F)c(-c2nc(C(=O)Nc3cnn(C)c3[C@@H]3CC[C@@H](N)[C@H](O)CO3)ccc2F)c(F)c1 [Example 191, N-(5-((2S,5R,6S)-5-Amino-6-hydroxyoxepan-2-yl)-1-methyl-1H-pyrazol-4-yl)-6-(2,6-difluoro-4-(2-methoxyethoxy)phenyl)-5-fluoropicolinamide]"
16,81 pM,"C[C@@H]1C[C@H](N)CC[C@H](c2c(NC(=O)c3nc(-c4c(F)cccc4F)sc3N)cnn2C)O1 [Example 120, 5-amino-N-(5-((2R,5R,7R)-5-amino-7-methyloxepan-2-yl)-1-methyl-1H-pyrazol-4-yl)-2-(2,6-difluorophenyl)thiazole-4-carboxamide]"
17,248 pM,"Cn1ncc(NC(=O)c2nc(-c3c(F)cccc3F)sc2N)c1[C@@H]1C[C@H](N)CCO1 [Example 160, 5-Amino-N-[5-[(2S,4R)-4-aminotetrahydropyran-2-yl]-1-methyl-pyrazol-4-yl]-2-(2,6-difluorophenyl)thiazole-4-carboxamide]"
18,283 pM,"Cc1nn(C)cc1-c1nc(C(=O)Nc2cnn(C)c2[C@@H]2CC[C@@H](N)[C@H](F)CO2)cs1 [Example 241, N-(5-((2S,5R,6S)-5-amino-6-fluorooxepan-2-yl)-1-methyl-1H-pyrazol-4-yl)-2-(1,3-dimethyl-1H-pyrazol-4-yl)thiazole-4-carboxamide]"
19,647 pM,"Cn1ncc(NC(=O)c2nc(-c3c(F)cccc3F)sc2N)c1C1OCC(CO)CO1 (centres unmarked) [Example 165, 5-Amino-2-(2,6-difluorophenyl)-N-[5-[5-(hydroxymethyl)-1,3-dioxan-2-yl]-1-methyl-pyrazol-4-yl]thiazole-4-carboxamide]"
20,31 pM,"Cn1ncc(NC(=O)c2csc(-c3cc(Cl)ccc3F)n2)c1[C@@H]1CC[C@@H](N)[C@H](F)CO1 [Example 302, N-(5-((2S,5R,6S)-5-amino-6-fluorooxepan-2-yl)-1-methyl-1H-pyrazol-4-yl)-2-(5-chloro-2-fluorophenyl)thiazole-4-carboxamide]"
21,15 pM,"Cn1ncc(NC(=O)c2nc(-c3cccc(F)c3Cl)sc2N)c1[C@@H]1CC[C@@H](N)[C@H](F)CO1 [Example 337, 5-amino-N-(5-((2S,5R,6S)-5-amino-6-fluorooxepan-2-yl)-1-methyl-1H-pyrazol-4-yl)-2-(2-chloro-3-fluorophenyl)thiazole-4-carboxamide]"
22,19 pM,"Cn1ncc(NC(=O)c2nc(-c3c(F)cccc3F)sc2N)c1[C@H]1C[C@@H](N)CCO1 [Example 159, 5-Amino-N-[5-[(2R,4S)-4-aminotetrahydropyran-2-yl]-1-methyl-pyrazol-4-yl]-2-(2,6-difluorophenyl)thiazole-4-carboxamide]"
23,162 pM,"Cn1ncc(NC(=O)c2ccc(F)c(-c3c(F)cc(C(O)(CO)CO)cc3F)n2)c1[C@@H]1CC[C@@H](N)[C@@H](F)CO1 [Example 212, N-(5-((2S,5R,6R)-5-amino-6-fluorooxepan-2-yl)-1-methyl-1H-pyrazol-4-yl)-6-(2,6-difluoro-4-(1,2,3-trihydroxypropan-2-yl)phenyl)-5-fluoropicolinamide]"
24,7200 pM,"Cn1ncc(NC(=O)c2csc(-c3c(F)cccc3CO)n2)c1[C@@H]1CC[C@@H](N)[C@H](F)CO1 [Example 382, N-[5-[(2S,5R,6S)-5-amino-6-fluoro-oxepan-2-yl]-1-methyl-pyrazol-4-yl]-2-[2-fluoro-6-(hydroxymethyl)phenyl]thiazole-4-carboxamide]"
25,19 pM,"C[C@@H]1CC(N)CC[C@H](c2c(NC(=O)c3nc(-c4c(F)cccc4F)sc3N)cnn2C)O1 (stereo partly drawn) [Example 113, 5-amino-N-(5-((2R,7R)-5-amino-7-methyloxepan-2-yl)-1-methyl-1H-pyrazol-4-yl)-2-(2,6-difluorophenyl)thiazole-4-carboxamide]"
26,16 pM,"Cc1cccc(F)c1-c1nc(C(=O)Nc2cnn(C)c2[C@@H]2CC[C@@H](N)[C@H](F)CO2)c(N)s1 [Example 330, 5-amino-N-(5-((2S,5R,6S)-5-amino-6-fluorooxepan-2-yl)-1-methyl-1H-pyrazol-4-yl)-2-(2-fluoro-6-methylphenyl)thiazole-4-carboxamide]"
27,630000 pM,"Cn1ncc(NC(=O)c2csc(-c3cccc(F)c3-c3cccc(F)c3Cl)n2)c1[C@@H]1CC[C@@H](N)[C@@H](F)CO1 [Example 251, N-(5-((2S,5R,6R)-5-amino-6-fluorooxepan-2-yl)-1-methyl-1H-pyrazol-4-yl)-2-(2′-chloro-3′,6-difluoro-[1,1′-biphenyl]-2-yl)thiazole-4-carboxamide]"
28,3 pM,"Cc1cc(F)c(-c2nc(C(=O)Nc3cnn(C)c3[C@@H]3CC[C@@H](N)[C@H](F)CO3)cs2)c(F)c1 [Example 312, N-(5-((2S,5R,6S)-5-amino-6-fluorooxepan-2-yl)-1-methyl-1H-pyrazol-4-yl)-2-(2,6-difluoro-4-methylphenyl)thiazole-4-carboxamide]"

row,SMILES,Ki
1,"Cn1ncc(NC(=O)c2csc(-c3cccc4cnn(C)c34)n2)c1[C@@H]1CC[C@@H](N)[C@H](F)CO1 [Example 403, N-[5-[(2S,5R,6S)-5-amino-6-fluoro-oxepan-2-yl]-1-methyl-pyrazol-4-yl]-2-(1-methylindazol-7-yl)thiazole-4-carboxamide]",5910 pM
